Measurements reported in patent EP0136569A2, “Isoflavone derivatives, their production and use” (Takeda Chemical Industries, Ltd., priority 1983, dated 1985).

Tested on: young oophorectomized rats
Experiment: Estrogenic activity (uterine wet weight) in young oophorectomized rats
Assay type: in vivo, Sprague-Dawley rats
Excerpt: Test Example 1 Estrogenic activity of 7-isopropoxy-3-(4-hydroxyphenyl)-4H-1-benzopyran-4-one (hereinafter referred to as compound A) in young oophorectomized rats Sprague-Dawley rats, 33 days old and 11 days after oophorectomy for elimination of endogenous estrogenic activity, were used in groups of 6 to 7 animals. Compound A was suspended in a 1% aqueous solution of hydroxypropyl-cellulose and administered orally for 3 days, while as a representative example of the conventional estrogen drug, estrone was dissolved in sesame oil and administered subcutaneously for 3 days. On the fourth day, each animal was autopsied and its uterine wet weight was recorded.

C[C@]12CC[C@@H]3c4ccc(O)cc4CC[C@H]3[C@@H]1CCC2=O [Estrone, estrone, reference compound]
Uterine wet weight (mg ± S.D.) (daily dose 0.0025 mg/kg, subcutaneously for 3 days in sesame oil, n=7, significant vs control (P<0.01)): 121.1 ± 7.0 mg | Uterine wet weight (mg ± S.D.) (daily dose 0.005 mg/kg, subcutaneously for 3 days in sesame oil, n=7, significant vs control (P<0.01)): 200.5 ± 14.3 mg | Uterine wet weight (mg ± S.D.) (daily dose 0.01 mg/kg, subcutaneously for 3 days in sesame oil, n=7, significant vs control (P<0.01)): 247.2 ± 14.6 mg

CC(C)Oc1ccc2c(=O)c(-c3ccc(O)cc3)coc2c1 [Compound A, 7-isopropoxy-3-(4-hydroxyphenyl)-4H-1-benzopyran-4-one]
Uterine wet weight (mg ± S.D.) (daily dose 6.25 mg/kg, orally for 3 days, autopsy on fourth day, n=7): 32.6 ± 1.2 mg | Uterine wet weight (mg ± S.D.) (daily dose 25 mg/kg, orally for 3 days, autopsy on fourth day, n=7): 39.2 ± 2.3 mg | Uterine wet weight (mg ± S.D.) (daily dose 100 mg/kg, orally for 3 days, autopsy on fourth day, n=7, significant vs control (P<0.01)): 56.3 ± 3.7 mg | Uterine wet weight (mg ± S.D.) (daily dose 400 mg/kg, orally for 3 days, autopsy on fourth day, n=6, significant vs control (P<0.01)): 83.0 ± 6.9 mg | uterine weight increasing effect, dose-response curve (orally for 3 days, daily dose levels of 100 mg/kg and 400 mg/kg): uterine weight increasing effect with a dose-response curve of moderate gradient
